# Measurements as given in patent publication US4073892A, “N^2 -alkoxynaphthylsulfonyl-L-argininamides and the pharmaceutically acceptable salts thereof” (Mitsubishi Chemical Industries Limited, priority 1974, dated 1978).
# Tests used:
# thrombin = biological target: T1, thrombin (Bos taurus, UniProt P00735); test: fibrinogen coagulation time (antithrombotic activity); format: biochemical; conditions: bovine fibrinogen, thrombin solution 5 units/ml, borate saline buffer pH 7.4, 25° C; normal coagulation time 50-55 seconds
# T1 construct: purchased Mochida Pharmaceutical Co., Ltd
# Procedure: Immediately after mixing, the reaction mixture was transferred from the ice bath to a bath maintained at 25° C. Coagulation times were taken as the period between the time of transference to the 25° C bath and the time of the first appearance of fibrin threads.
# The term "concentration required to prolong the coagulation time by a factor of two" is the concentration of an active ingredient required to prolong the normal coagulation time 50-55 seconds to 100-110 seconds.
# mice (male, 20 g) = test: acute toxicity (LD50), intraperitoneal administration in mice; format: in vivo
# From the text: Representative LD50 values, for example, for N^2 -(6, 7-dimethoxy-2-naphthylsulfonyl)-L-arginyl-N-(2-methoxyethyl)glycine, N^2 -(6, 7-dimethoxy-2-naphthylsulfonyl)-L-arginyl-N-(2-ethoxyethyl)-β-alanine, N^2 -(4, 6-dimethoxy-2-naphthylsulfonyl)-L-arginyl-N-(2-methoxyethyl)glycine, N^2 -(7-methoxy-2-naphthylsulfonyl)-L-arginyl-N-(2-methoxyethyl)glycine are 1,900-2,400, 660-1,000, 660-1,000, 2,000 milligrams per kilogram, respectively.
Compound,Concentration Required to Prolong The Coagulation Time By A Factor of Two (thrombin) [µM],"acute toxicity value (LD50) (mice (male, 20 g))"
"COCCN(CC(=O)O)C(=O)[C@H](CCCNC(=N)N)NS(=O)(=O)c1cccc2c(OC)cccc12 [Sample 43, N^2-(5-methoxy-1-naphthylsulfonyl)-L-arginyl-N-(2-methoxyethyl) glycine]",2.5,
"COCCCN(CC(=O)O)S(=O)(=O)c1ccc2cc(OC)c(OC)cc2c1 [Sample 19, N^2-(6,7-dimethoxy-2-naphthylsulfonyl)-N-(3-methoxypropyl)glycine]",5,
"COCCN(CC(=O)O)C(=O)[C@H](CCCNC(=N)N)NS(=O)(=O)c1cc(OC)c2cc(OC)ccc2c1 [Sample 23, N^2-(4,6-dimethoxy-2-naphthylsulfonyl)-L-arginyl-N-(2-methoxyethyl)glycine]",4,"660-1,000 milligrams per kilogram"
"COCCN(CC(=O)Oc1ccc2c(c1)CCC2)C(=O)[C@H](CCCNC(=N)N)NS(=O)(=O)c1ccc2cc(OC)c(OC)cc2c1 [Sample 53, N^2-(6,7-dimethoxy-2-naphthylsulfonyl)-L-arginyl-N-(2-methoxyethyl) glycine 5-indanyl ester]",30,
"CCCCN(CC(=O)O)C(=O)[C@H](CCCNC(=N)N)NS(=O)(=O)c1ccc2cc(OC)ccc2c1 [Sample 31, N^2-(6-methoxy-2-naphthylsulfonyl)-L-arginyl-N-butylglycine]",0.5,
"COCCN(CC(=O)O)C(=O)[C@H](CCCNC(=N)N)NS(=O)(=O)c1ccc2ccc(OC)cc2c1 [Sample 35, N^2-(7-methoxy-2-naphthylsulfonyl)-L-arginyl-N-(2-methoxyethyl)glycine]",0.5,"2,000 milligrams per kilogram"
"CCOCCN(CCC(=O)O)C(=O)[C@H](CCCNC(=N)N)NS(=O)(=O)c1ccc2cc(OC)c(OC)cc2c1 [Sample 21, N^2-(6,7-dimethoxy-2-naphthylsulfonyl)-L-arginyl-N-(2-ethoxyethyl)-β-alanine]",4,"660-1,000 milligrams per kilogram"
"COCCN(CC(=O)O)C(=O)[C@H](CCCNC(=N)N)NS(=O)(=O)c1ccc2cc(OC)c(OC)cc2c1 [Sample 13, N^2-(6,7-dimethoxy-2-naphthylsulfonyl)-L-arginyl-N-(2-methoxyethyl)glycine]",0.5,"1,900-2,400 milligrams per kilogram"
"COCCN(CC(=O)Oc1cccc(C)c1)C(=O)[C@H](CCCNC(=N)N)NS(=O)(=O)c1ccc2cc(OC)c(OC)cc2c1 [Sample 52, N^2-(6,7-dimethoxy-2-naphthylsulfonyl)-L-arginyl-N-(2-methoxyethyl) glycine m-tolyl ester]",20,
"CCCCCCCCOC(=O)CN(CCOC)C(=O)[C@H](CCCNC(=N)N)NS(=O)(=O)c1ccc2cc(OC)c(OC)cc2c1 [Sample 50, N^2-(6,7-dimethoxy-2-naphthylsulfonyl)-L-arginyl-N-(2-methoxyethyl)glycine octyl ester]",2,
"COc1ccc2ccc(S(=O)(=O)N[C@@H](CCCNC(=N)N)C(=O)N(CC[S+](C)[O-])CC(=O)O)cc2c1 (stereo partly drawn) [Sample 57, N^2-(7-methoxy-2-naphthylsulfonyl)-L-arginyl-N-(2-methylsulfinylethyl)glycine]",6.5,

# Continued, in another order:
Concentration Required to Prolong The Coagulation Time By A Factor of Two (thrombin) [µM],Compound,"acute toxicity value (LD50) (mice (male, 20 g))"
55,"CCCC(C(=O)O)N(CC(=O)O)C(=O)[C@H](CCCNC(=N)N)NS(=O)(=O)c1ccc2cc(OC)c(OC)cc2c1 (stereo partly drawn) [Sample 54, N^2-(6,7-dimethoxy-2-naphthylsulfonyl)-L-arginyl-N-(1-carboxybutyl)glycine]",
0.5,"CCCCN(CC(=O)O)C(=O)[C@H](CCCNC(=N)N)NS(=O)(=O)c1ccc2ccc(OC)cc2c1 [Sample 39, N^2-(7-methoxy-2-naphthylsulfonyl)-L-arginyl-N-butylglycine]",
2,"COc1cc2ccc(S(=O)(=O)N[C@@H](CCCNC(=N)N)C(=O)N(CC(=O)O)CC(C)C)cc2cc1OC [Sample 5, N^2-(6,7-dimethoxy-2-naphthylsulfonyl)-L-arginyl-N-isobutylglycine]",
0.3,"CCCCN(CC(=O)O)C(=O)[C@H](CCCNC(=N)N)NS(=O)(=O)c1ccc2cc(OC)c(OC)cc2c1 [Sample 3, N^2-(6,7-dimethoxy-2-naphthylsulfonyl)-L-arginyl-N-butylglycine]",
2.5,"COCCN(CCCC(=O)O)C(=O)[C@H](CCCNC(=N)N)NS(=O)(=O)c1ccc2cc(OC)c(OC)cc2c1 [Sample 17, N^2-(6,7-dimethoxy-2-naphthylsulfonyl)-N-(2-methoxyethyl)-N-(3-carboxypropyl)-L-argininamide]",
6.5,"CCOC(=O)CCN(CC(=O)O)C(=O)[C@H](CCCNC(=N)N)NS(=O)(=O)c1ccc2cc(OC)c(OC)cc2c1 [Sample 49, N^2-(6,7-dimethoxy-2-naphthylsulfonyl)-L-arginyl-N-(2-ethoxycarbonylethyl)glycine]",
8,"CCCN(CC(=O)O)C(=O)[C@H](CCCNC(=N)N)NS(=O)(=O)c1ccc2cc(OC)c(OC)cc2c1 [Sample 1, N^2-(6,7-dimethoxy-2-naphthylsulfonyl)-L-arginyl-N-propylglycine]",
1.5,"CCOC(=O)CN(CCOC)C(=O)[C@H](CCCNC(=N)N)NS(=O)(=O)c1ccc2cc(OC)c(OC)cc2c1 [Sample 14, N^2-(6,7-dimethoxy-2-naphthylsulfonyl)-L-arginyl-N-(2-methoxyethyl)glycine ethyl ester]",
6.5,"COc1cc2ccc(S(=O)(=O)N[C@@H](CCCNC(=N)N)C(=O)N(CC(=O)O)CC(C)OC)cc2cc1OC (stereo partly drawn) [Sample 55, N^2-(6,7-dimethoxy-2-naphthylsulfonyl)-L-arginyl-N-(2-methoxypropyl)glycine]",
1.5,"CCCCCCN(CC(=O)O)C(=O)[C@H](CCCNC(=N)N)NS(=O)(=O)c1ccc2cc(OC)c(OC)cc2c1 [Sample 9, N^2-(6,7-dimethoxy-2-naphthylsulfonyl)-L-arginyl-N-hexylglycine]",
2,"CCCCN(CC(=O)O)C(=O)[C@H](CCCNC(=N)N)NS(=O)(=O)c1cc(OC)c2cc(OC)ccc2c1 [Sample 25, N^2-(4,6-dimethoxy-2-naphthylsulfonyl)-L-arginyl-N-butylglycine]",
5,"CCCCCN(CC(=O)O)C(=O)[C@H](CCCNC(=N)N)NS(=O)(=O)c1ccc2cc(OC)c(OC)cc2c1 [Sample 7, N^2-(6,7-dimethoxy-2-naphthylsulfonyl)-L-arginyl-N-pentylglycine]",
2.5,"COCCN(CCC(=O)O)C(=O)[C@H](CCCNC(=N)N)NS(=O)(=O)c1ccc2cc(OC)c(OC)cc2c1 [Sample 15, N^2-(6,7-dimethoxy-2-naphthylsulfonyl)-L-arginyl-N-(2-methoxyehtyl)-β-alanine]",
15,"CCOc1cc2ccc(S(=O)(=O)N[C@@H](CCCNC(=N)N)C(=O)N(CCOC)CC(=O)O)cc2cc1OCC [Sample 27, N^2-(6,7-diethoxy-2-naphthylsulfonyl)-L-arginyl-N-(2-methoxyethyl) glycine]",
